Laboratory results reported in the supplement of paper PMC7840683.
Where a name gives a salt, the structure may show the parent alone. ± gives the standard deviation of the averaged measurements.

Tested on: HepaRG
Assay: LDH release cytotoxicity, % of total lysis control; higher = more cytotoxic
Conditions: 48 h
In short: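 Eight-point half-log series of test chemicals, the highest at 100 µM, were given in duplicate for 48 h to single-lot HepaRG cells on collagen I-coated 96-well plates in serum-free induction medium with 0.5% DMSO. A Tecan Safire read resorufin fluorescence from CytoTox-ONE as a measure of LDH in 50 µL spent medium, with 0.1% Triton X in total lysis wells. Percent cytotoxicity was normalized to on-plate vehicle and total lysis controls and averaged over the duplicates.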

CCN(CC)C(=O)c1cccc(C)c1 [DEET]
Conditions | LDH release cytotoxicity [%]
0.03305 µM | -1.66 ± 0.043
0.1045 µM | -2.06 ± 0.73
0.330458 µM | -2.58 ± 0.48
1.045 µM | -2.44 ± 0.8
3.30458 µM | -2.59 ± 0.4
10.45 µM | -2.53 ± 0.61
33.0458 µM | -1.85 ± 1
104.5 µM | -1.16 ± 0.13

CC(Cl)(Cl)C(=O)O [Dalapon]
Conditions | LDH release cytotoxicity [%]
0.03162 µM | -1.01 ± 0.44
0.1 µM | -0.953 ± 0.67
0.3162278 µM | -0.84 ± 0.36
1 µM | -0.409 ± 0.058
3.16228 µM | -0.505 ± 0.31
10 µM | 0.644 ± 1.2
31.6228 µM | 1.01 ± 1.3
100 µM | 0.962 ± 1.9

CN(C)NC(=O)CCC(=O)O [Daminozide]
Conditions | LDH release cytotoxicity [%]
0.03162 µM | -1.88 ± 0.43
0.1 µM | -1.67 ± 0.13
0.3162278 µM | -1.27 ± 0.85
1 µM | -0.212 ± 2.1
3.16228 µM | -1.11 ± 0.04
10 µM | -0.0868 ± 1
31.6228 µM | 0.553 ± 0.48
100 µM | 1.58 ± 0.84

Nc1ccc(S(=O)(=O)c2ccc(N)cc2)cc1 [Dapsone]
Conditions | LDH release cytotoxicity [%]
0.03162 µM | -1.24 ± 0.6
0.1 µM | -0.379 ± 0.2
0.3162278 µM | -1.16 ± 0.45
1 µM | -0.536 ± 0.3
3.16228 µM | 0.1 ± 0.69
10 µM | -0.392 ± 0.19
31.6228 µM | 0.105 ± 1
100 µM | 1.63 ± 0.23

CC(C)(C)c1cc(C=C2SC(=N)NC2=O)cc(C(C)(C)C)c1O [Darbufelone mesylate]
Conditions | LDH release cytotoxicity [%]
0.03162 µM | -2.49 ± 0.67
0.1 µM | -3.41 ± 0.28
0.3162278 µM | -3.09 ± 0.45
1 µM | -3.16 ± 0.65
3.16228 µM | -3.23 ± 0.27
10 µM | -3.27 ± 0.089
31.6228 µM | -2.49 ± 1
100 µM | -1.56 ± 0.092

CN1CSC(=S)N(C)C1 [Dazomet]
Conditions | LDH release cytotoxicity [%]
0.03162 µM | -1.04 ± 1.2
0.1 µM | -0.753 ± 0.32
0.3162278 µM | -1.34 ± 1.3
1 µM | -1.86 ± 0.33
3.16228 µM | -2.37 ± 0.28
10 µM | -3.44 ± 0.043
31.6228 µM | 13.1 ± 2.2
100 µM | 78 ± 4.3

CCCCCCCCCC [Decane]
Conditions | LDH release cytotoxicity [%]
0.031623 µM | -0.647 ± 0.6
0.1 µM | -2.33 ± 0.84
0.316228 µM | -2.41 ± 0.87
1 µM | -2.73 ± 0.13
3.16228 µM | -3.64 ± 0.16
10 µM | -2.67 ± 0.26
31.6228 µM | -1.91 ± 0.28
100 µM | 0.361 ± 0.12

CCCCCCCCCC(=O)O [Decanoic acid]
Conditions | LDH release cytotoxicity [%]
0.03162 µM | -1.36 ± 0.57
0.1 µM | -2.46 ± 0.9
0.3162278 µM | -1.69 ± 0.25
1 µM | -1.7 ± 0.25
3.16228 µM | -1.42 ± 0.15
10 µM | -1.16 ± 0.079
31.6228 µM | -0.917 ± 0.64
100 µM | -0.408 ± 0.48

CCNc1nc(N)nc(Cl)n1 [Deisopropylatrazine]
Conditions | LDH release cytotoxicity [%]
0.03162 µM | -0.429 ± 0.17
0.1 µM | -1.18 ± 0.59
0.3162278 µM | -0.471 ± 0.66
1 µM | -1.46 ± 0.071
3.16228 µM | -0.314 ± 0.35
10 µM | -0.765 ± 0.36
31.6228 µM | -0.375 ± 0.045
100 µM | 0.373 ± 0.5

CC1CC2C3CCC4=CC(=O)C=CC4(C)C3(F)C(O)CC2(C)C1(O)C(=O)COP(=O)(O)O (stereo not given) [Dexamethasone sodium phosphate]
Conditions | LDH release cytotoxicity [%]
0.03162 µM | -1.41 ± 1.1
0.1 µM | -1.19 ± 0.21
0.3162278 µM | -0.881 ± 0.18
1 µM | -1.653 ± 0.0034
3.16228 µM | -1.03 ± 0.27
10 µM | -1.06 ± 0.61
31.6228 µM | -0.535 ± 0.093
100 µM | -0.295 ± 0.86

CCCCC(CC)COC(=O)c1ccccc1C(=O)OCC(CC)CCCC (stereo not given) [Di(2-ethylhexyl) phthalate]
Conditions | LDH release cytotoxicity [%]
0.01581 µM | -1.27 ± 1.2
0.05 µM | -1.74 ± 0.036
0.1581139 µM | -1.47 ± 0.65
0.5 µM | -0.91 ± 0.3
1.5811388 µM | -1.48 ± 0.38
5 µM | -1.76 ± 0.37
15.8114 µM | -0.407 ± 1.5
50 µM | -0.778 ± 0.45

CC(COCC(C)OC(=O)c1ccccc1)OC(=O)c1ccccc1 (stereo not given) [Di(propylene glycol) dibenzoate]
Conditions | LDH release cytotoxicity [%]
0.03162 µM | -0.851 ± 0.69
0.1 µM | -1.49 ± 0.45
0.3162278 µM | -1.08 ± 0.15
1 µM | -1.01 ± 0.013
3.16228 µM | -1.58 ± 0.024
10 µM | -1.58 ± 0.33
31.6228 µM | -1.03 ± 1.1
100 µM | 0.42 ± 1.6

CCCCCCCCOC(=O)c1ccccc1C(=O)OCCCCCCCC [Di-n-octyl phthalate]
Conditions | LDH release cytotoxicity [%]
0.03162 µM | -0.293 ± 0.47
0.1 µM | -1.33 ± 0.57
0.3162278 µM | -0.746 ± 0.37
1 µM | -0.29 ± 0.31
3.16228 µM | -1.1 ± 0.62
10 µM | -0.705 ± 0.2
31.6228 µM | -0.176 ± 0.076
100 µM | 5.1 ± 2

CC(C)(C)OOC(C)(C)C [Di-tert-butyl peroxide]
Conditions | LDH release cytotoxicity [%]
0.01581 µM | -1.21 ± 0.27
0.05 µM | -2.14 ± 0.51
0.1581139 µM | -1.99 ± 0.23
0.5 µM | -2.18 ± 0.81
1.5811388 µM | -1.46 ± 0.93
5 µM | -1.68 ± 1.1
15.8114 µM | -1.75 ± 0.98
50 µM | -1.55 ± 0.28

CC(=O)CC(C)(C)O [Diacetone alcohol]
Conditions | LDH release cytotoxicity [%]
0.016602 µM | -0.631 ± 2.5
0.0525 µM | 0.0827 ± 1.3
0.16602 µM | -0.266 ± 1.6
0.525 µM | 0.0034 ± 1.3
1.660196 µM | -0.934 ± 0.13
5.25 µM | -1.02 ± 0.65
16.602 µM | -0.505 ± 0.51
52.5 µM | -2.05 ± 3

C=CCOC(=O)c1ccccc1C(=O)OCC=C [Diallyl phthalate]
Conditions | LDH release cytotoxicity [%]
0.03162 µM | 0.139 ± 0.96
0.1 µM | 0.0319 ± 0.41
0.3162278 µM | -0.423 ± 1.2
1 µM | -0.76 ± 0.22
3.16228 µM | -0.551 ± 0.21
10 µM | 0.184 ± 0.77
31.6228 µM | -0.538 ± 0.2
100 µM | 0.377 ± 0.38

CCOP(=S)(OCC)Oc1cc(C)nc(C(C)C)n1 [Diazinon]
Conditions | LDH release cytotoxicity [%]
0.03162 µM | -0.351 ± 0.5
0.1 µM | -0.469 ± 0.17
0.3162278 µM | -1.1 ± 0.52
1 µM | -1.24 ± 0.3
3.16228 µM | 0.347 ± 0.03
10 µM | -0.4 ± 0.31
31.6228 µM | -0.512 ± 0.59
100 µM | 0.528 ± 0.71

CCOP(=O)(OCC)Oc1cc(C)nc(C(C)C)n1 [Diazoxon]
Conditions | LDH release cytotoxicity [%]
0.03162 µM | -0.61 ± 0.39
0.1 µM | -1.35 ± 0.75
0.3162278 µM | -0.708 ± 1.4
1 µM | -1.37 ± 1.6
3.16228 µM | -1.41 ± 0.85
10 µM | -0.802 ± 2.1
31.6228 µM | -0.357 ± 1.4
100 µM | 1.03 ± 2.2

c1ccc2c(c1)oc1ccccc12 [Dibenzofuran]
Conditions | LDH release cytotoxicity [%]
0.03162 µM | -0.992 ± 0.24
0.1 µM | -1.07 ± 0.44
0.3162278 µM | -1.34 ± 0.76
1 µM | -1.2 ± 0.83
3.16228 µM | -1.19 ± 1
10 µM | -0.829 ± 0.93
31.6228 µM | -0.8185 ± 0.0015
100 µM | 1.45 ± 0.45

N#CC(Br)Br [Dibromoacetonitrile]
Conditions | LDH release cytotoxicity [%]
0.03162 µM | -2.24 ± 0.96
0.1 µM | -3.22 ± 0.87
0.3162278 µM | -2.74 ± 0.21
1 µM | -2.98 ± 0.13
3.16228 µM | -2.65 ± 0.41
10 µM | -2.89 ± 1.6
31.6228 µM | -2.1 ± 0.82
100 µM | -0.937 ± 0.31
